In EP0031883A1, “Antimicrobial agent containing hydroxy butylimidazole derivatives” (BAYER AG, priority 1979, dated 1981):

System: Candida
Experiment: Antimicrobial in-vivo activity (oral) in mouse candidosis
Parameters: species or system Mäuse
Settings: SPF-CF1 mice infected i.v. with 1 - 2 x 10^6 Candida cells; 50 - 100 mg/kg oral, one hour before and seven hours after infection; untreated controls about 5 % survival on day 5
Experimental: Mäuze vom Typ SPF-CF1 wurden intravenös mit 1 - 2 x 10^6 logaritmisch wachsenden Candida-Zellen, die in physiologischer Kochsalzlösung suspendiert waren, infiziert. Eine Stunde vor und sieben Stunden nach der Infektion werden die Tiere mit jeweils 50 - 100 mg/kg Körpergewicht der Präparate oral behandelt.
Urbehandelte Tiere starben 3 bis 6 Tage post infektionen. Die Überlebensrate am 5. Tag post infektionen betrug bei unbehandelten Kontrolltieren etwa 5 %.

SMILES	Wirkung
Clc1ccc(COC(Cn2ccnc2)c2ccc(Cl)cc2Cl)c(Cl)c1 (stereo not drawn) [Miconazol®, 1-[2,4-Dichlor-β-(2,4-dichlorbenzyloxy)-phenethyl]-imidazolnatrium]	keine Wirkung
CC(C)(C)C(O)(Cn1ccnc1)c1ccc(-c2ccc(Cl)cc2)cc1 (centres unmarked) [Verbindung 2, 1-(4-p-Chlorbiphenylyl)-1-(tert.-butyl)-2-(imidazol-1-yl)-ethan-1-ol]	sehr gute Wirkung
